Laboratory results published in US20240082232A1, “COMPOSITIONS AND METHODS FOR TREATMENT OF OVARIAN AND BREAST CANCER” (Board of Regents, The University of Texas System, priority 2021, published 2024).
“Also recorded” adds a separate entry of the source.

Experiments:
[1] = test system: MEF2D binding to FANCD2, EXO1, XRCC4; assay: ChIP-qPCR of MEF2D binding to promoter/enhancer regions; assay type: cell-based, human; conditions: for MEF2D binding to EXO1 and XRCC4 promoter/enhancer regions: all cell lines tested; for MEF2D-association with the FANCD2 promoter/enhancer region: all four cell lines assessed
Description: (A) Alterations affecting MEF2 family genes in ovarian and breast cancer by TCGA analysis. […] Data and plots were obtained using cBioPortal (21, 58, 59). (B) MEF2D consensus DNA motifs. The MEF2 motif is enriched in MEF2D-binding sites in SKOv3 cells. (C) GO analysis of MEF2D-bound genes. […] (E) Chip and RT-qPCR analysis of FANCD2, EXO1, and XRCC4 genes. […] Chip pull-down samples were analyzed by RT-qPCR.
(A) MEF2D-binding sites in human ovarian cancer cells. (B) Chip analysis of FANCD2, EXO1, and XRCC4 genes. […] Chip pull-down samples were analyzed by RT-qPCR using as indicated.
Chip assays were performed using the Magna Chip A Kit (Millipore). […] Nuclei were isolated and sonicated to obtain 200-1000 bp DNA fragments using the QSONICA sonicator for 30 cycles with 10 seconds pulses at 100% amplitude with 2 min of incubation on ice between pulses. For individual ChIP assay, 100 μg of soluble chromatin per sample was immunoprecipitated with 8 μg of mouse IgG control antibody (Santa Cruz, sc-2025), 8 μg of rabbit control antibody (Millipore, PP64B), 8 μg of MEF2D antibody (Santa Cruz, sc-27115 3×), 8 μg of RNA polymerase II antibody (Abcam, ab817), 6 μg of Histone H3 (acetyl K27) antibody (Abcam, ab45173) or 6 μg of Histone H3 (tri methyl K4) (Abcam, ab8580). For ChIP-Sequence, 500 μg of chromatin per sample was immunoprecipitated with 40 μg of MEF2D antibody. Input determined from 1% of the cell lysate was used as a negative control. Purified and enriched DNA was quantified using real time quantitative PCR (RT-qPCR) with the following primers. FANCD2D Forward, 5′-ACCTGTTATGAGCGTGAAGTC-3′ (SEQ ID NO:1) and Reverse, 5′-GATGCAGGACTGTGCATTAGA-3′ (SEQ ID NO:2); EXD2 Forward, 5′-GGTCTGGCCTAAGGTTTCTTC-3′ (SEQ ID NO:3) and Reverse, 5′-CAG TTC ACG CTG GGT TCT T-3′ (SEQ ID NO:4); and XRCC Forward, 5′-GCAGTCTTCCTAGTCTCAACT-3′ (SEQ ID NO:5) and Reverse, 5′-TTGCCCTTCTAGGAGCTTAATG-3′ (SEQ ID NO:6). RT-qPCR was performed using iTaq Universal SYBR Green Supermix (Bio-Rad, 172-5124) in a CFX Connect RT-qPCR (Bio-Rad). Thermal cycling condition was as follows: 94° C. for 10 min, followed by 40 cycles of 94° C. for 20 sec, and 60° C. for 60 sec. Analysis of qPCR data was calculated using fold enrichment method (The ChIP signals are divided by the IgG antibody signals, 2^-DDCt).

[2] = test system: MEF2D binding sites in SKOv3 ovarian cancer cells; assay type: cell-based, human
Description: Genome-wide binding of MEF2D in SKOv3 ovarian cancer cells was then examined using chromatin immunoprecipitation sequencing (Chip-seq). […] To identify a MEF2D consensus recognition sequence in ovarian cancer cells, de novo-motif discovery analysis was performed.
Chip assays were performed using the Magna Chip A Kit (Millipore). […] Nuclei were isolated and sonicated to obtain 200-1000 bp DNA fragments using the QSONICA sonicator for 30 cycles with 10 seconds pulses at 100% amplitude with 2 min of incubation on ice between pulses. […] For ChIP-Sequence, 500 μg of chromatin per sample was immunoprecipitated with 40 μg of MEF2D antibody. Input determined from 1% of the cell lysate was used as a negative control. Purified and enriched DNA was quantified using real time quantitative PCR (RT-qPCR) with the following primers. […] Analysis of qPCR data was calculated using fold enrichment method (The ChIP signals are divided by the IgG antibody signals, 2^-DDCt).
Sequencing was performed by the Sequencing and Microarray Facility (SMF) at MD Anderson Cancer Center. […] Libraries were amplified by 8 cycles of PCR and then size distribution was assessed using the 4200 TapeStation High Sensitivity D1000 ScreenTape (Agilent Technologies) and quantified using the Qubit dsDNA HS Assay Kit (ThermoFisher). […] The raw reads were first preprocessed to remove sequencing adapters and low quality reads. […]

[3] = test system: SKOv3, OVCAR8, HCC5032, MDA-MB-231 cells; assay: DNA damage: γ-H2AX immunofluorescence and comet assay; assay type: cell-based, human
Description: (A) The Heatmap representation unsupervised hierarchical clustering of differentially expressed genes associated with DNA repair. […] (B) Analysis of DNA Repair and apoptosis genes. BRCA2, EXO1, FANCD2, LIG4, XRCC4, BAX, BCL2, CASP7, and TRADD were analyzed using RT-PCR in OVCAR8 ovarian and MDA-MB-231 breast cancer cells. […] (C) Quantification of DNA damage (γ-H2AX). Endogenous γ-H2AX was stained with anti-γ-H2AX antibody in the cells treated with single agent or combined for 8 hrs as indicated. […] Red indicates γ-H2AX and Blue-DAPI indicates nuclear stain. Representative images are presented (right). Bar 20 […]. Red γ-H2AX dots were quantified with OLYMPUS CellSens Dimension software. […] Bar 20 μm. (D) Detection of apoptosis using Annexin V/Propidium iodide (PI) staining.
(A) The heatmap of unsupervised hierarchical clustering of differently expressed genes associated with apoptosis. […] (B) Analysis of DNA repair and apoptosis gene. […] Representative experiments were from two independent experiment and 3 technical repeats per experiments. (C) Quantification of DNA damage using comet assay. […] Slides were then stained with Vista Green DNA dye and viewed using Olympus fluorescence microscope with FITC filter. Olive Tail Moment was measured using CaspLab1.2.3β2 software. […] Representative experiments were from three independent experiments with a minimum of 50 cells.
Cells were trypsinized and resuspended at 2×10^5/mL in cold PBS without Ca^2+ and Mg^2+. Cells were mixed with pre-warmed comet agarose at 1:10 (v/v) ratio. 10 uL of cell agarose mixture was plated onto comet slides pre-coated with 75 uL of agarose and chilled at 4° C. for 15 min to set. Cells were lysed in 25 mL of Lysis buffer at 4° C. for 2 hrs and washed with alkaline solution (pH 10). Comet slides were electrophoresed in cold alkaline solution at 20V for 15 min. […] Experiments were run in triplicate and Olive Tail Moment was measured using CaspLab1.2.β2 software (CaspLab.com). […] 50-200 Cells were measured for each treatment and experiments were repeated twice independently to ensure reproducibility. […]

[4] = test system: ovarian cancer cell lines; assay: cells; conditions: read-out: IC50, growth of ovarian cancer cell lines
[5] = test system: MDA-MB-231 xenografts; assay: MDA-MB-231 mammary fat pad xenograft; assay type: in vivo, mice; conditions: 5 weeks treatment
Description: (§1) (^nsp>0.05, *p<0.05; ** p<0.01). […] (^nsp>0.05, *p<0.05; ** p<0.01). […] Scale bar, 50 μM.
Forty female nu/nu mice were injected with 0.8×10^6 MDA-MB-231 cells into their fourth mammary fat pads. […] Tumors were measured every week as noted above (SKOv3 xenograft models).

[6] = test system: organoid; assay: Organoid growth; assay type: cell-based
Description: To evaluate additive or synergistic interactions, a combination Index (CI value) was calculated with CalcuSyn software.

[7] = Toxicology / pre-clinical studies, hematologic toxicity; assay type: in vivo
[8] = test system: MDA-MB-231 orthotopic xenografts; assay: MDA-MB-231 orthotopic xenografts (paclitaxel sensitivity study); assay type: in vivo, mice
[9] = test system: OVCAR8 and MDA-MB-231 xenograft tumors; assay: IHC of xenograft tumors at study termination; assay type: in vivo, mice
Description: as §1
Tumors growing as xenografts were collected for histology with H&E and IHC staining. Routine H&E staining detected high-grade ovarian cancer in ovarian cancer xenograft models and breast cancer morphology in the breast cancer xenograft model, respectively. IHC of OVCAR8 and MDA-MB-231 xenograft tumors at study termination recapitulated in vitro studies.
Formalin fixed and paraffin embedded mouse tissue sections were deparaffinized and rehydrated in gradient ethanol solutions. Antigens were retrieved in Rodent Decloaker (BioCare Medical, RD913M) and microwaved twice in an EZ Retriever System V3 (BioGenex) at 95° C. for 5 min. Tissues were blocked in PeroxAbolish (BioCare Medical, PXA969M) for 30 min, Rodent Block M (BioCare Medical, RBM961L) for 30 min, and 5% BSA in PBS for 30 min Tissues were incubated with primary antibody as indicated overnight at 4° C. VisUCyte HRP Polymer IgG (R&D Systems, VC001-025 for mouse, VC003-025 for rabbit) was applied for 30 min at room temperature followed by DAB chromogenesis (BioCare Medical, BDB2004L). Tissues were counter-stained with CAT hematoxylin (Thermo Fisher, CATHE-M) for 20 sec. The slides were then dehydrated through gradient ethanol solutions and two passes of xylene and sealed with Permount (Thermo Fisher, SP15-100).

[10] = test system: DT40 PARP-1 −/− cells; assay: Dose-response in DT40 PARP-1 -/- cells; conditions: cells lacking PARP1/2
Description: Representative data are from three independent experiments with 4 technical repeats per experiment. […] The IC50 indicated on the curves was calculated using GraphPad Prism 8.
To further test this possibility, DT40 PARP-1 −/−cells that lack PARP enzyme activity (avian cells lack PARP2) were treated with SIK2 inhibitors or olaparib.

[11] = test system: SKOv3 xenografts; assay: SKOv3 subcutaneous xenograft; assay type: in vivo, mice; conditions: oral, five times per week, 4 weeks
Description: as §1

[12] = test system: SKOv3 and OVCAR8 SIK2 knock-out cells; assay: Olaparib dose-response in SIK2 knock-out cells; conditions: SIK2 knock-out by CRISPR/Cas9
Description: (§2) Representative experiments were from two independent experiments with four technical repeats per experiment. (B) Dose-response curves of olaparib in paired cancer cell lines with or without knockout of SIK2 (top) and with or without stable transfection of SIK2 (bottom). The median inhibitory concertation (IC50) of olaparib was calculated using GraphPad Prism 8. Representative experiments are from two independent experiments with four technical repeats per experiment. Western analysis confirmed either SIK2 knock out (top) or overexpression (bottom).
(§3) To exclude potential off-target effects of SIK2 inhibitors, SIK2 was knocked down by CRISPR/Cas9 and stable ectopic expression of SIK2 was established in SKOv3 and OVCAR8 ovarian cancer cells.
OVCAR8 and SKOv3 SIK2 knock out cell lines were established using CRISPR/Cas9 technology known in the art. Briefly, a plasmid with GFP containing Cas9 and the sgRNA expression were transfected to cancer cells. […] Transfected cells were isolated by FACS for single-cell culture 2-3 days after transfection, and then the cells were expanded and harvested for detection of the protein expression using western analysis.

[13] = test system: SKOv3 and OVCAR8 cells with stable ectopic expression of SIK2; assay: Olaparib dose-response in cells with stable ectopic SIK2 expression
Description: as §2, §3

| SMILES | MEF2D binding to EXO1 and XRCC4 promoter/enhancer regions [1] | MEF2D-association with the FANCD2 promoter/enhancer region [1] | MEF2D binding sites [2] | levels of γ-H2AX and tailed DNA [3] | IC50 [4] | tumor burden / tumor volume [5] | organoid growth [6] | hematologic toxicity [7] | survival of mice [8] | xenograft growth [8] | nuclear p-HDAC5 staining [9] | nuclear γ-H2AX staining [9] | sensitivity of DT40 PARP-1 −/− cells [10] | tumor growth [11] | IC50 in SIK2 deficient cells compared to control cells [12] | IC50 in cells with stable ectopic expression of SIK2 [13] |
| --- | --- | --- | --- | --- | --- | --- | --- | --- | --- | --- | --- | --- | --- | --- | --- | --- |
| COc1c(F)cc(F)cc1-c1c[nH]c2ncc(-c3cnn(C4CCNCC4)c3)cc12 [Compound A, 3-(3,5-difluoro-2-methoxyphenyl)-5-(1-(piperidin-4-yl)-1H-pyrazol-4-yl)-1H-pyrrolo[2,3-b]pyridine] | significantly decreased | decreased | 36 binding sites | modestly increased | 800 to 2600 nM |  |  |  |  |  |  |  |  |  |  |  |
| COc1c(F)cc(F)cc1-c1c[nH]c2ncc(-c3cnn(C4CCN(S(C)(=O)=O)CC4)c3)cc12 [Compound B, 3-(3,5-difluoro-2-methoxyphenyl)-5-(1-(1-(methylsulfonyl)piperidin-4-yl)-1H-pyrazol-4-yl)-1H-pyrrolo[2,3-b]pyridine] | significantly decreased | decreased |  | modestly increased | 800 to 2600 nM | tumor burden remained unchanged | inhibits organoid growth inducing cell death | minimal hematologic toxicity; also recorded: little or no hematopoietic toxicity | prolonged the survival | inhibited xenograft growth | decreased | increased nuclear γ-H2AX staining |  |  |  |  |
| O=C(c1cc(Cc2n[nH]c(=O)c3ccccc23)ccc1F)N1CCN(C(=O)C2CC2)CC1 [Olaparib, reference compound] |  |  |  | modestly increased |  | tumor burden remained unchanged |  |  |  |  | not |  | resisted | significantly inhibited tumor growth | lower IC50 | increased IC50 |
